The structures appear in SMILES notation.

This experiment relates to 3T3-L1 cells (pre-adipocytes). The experiment is described as follows: Stimulatory activity of triglyceride (TG) accumulation in 3T3-L1 cells (pre-adipocytes). Particulars: test compound 1 × 10^−5 M with insulin; 1×10^−6 M pioglitazone defined as 100%, insulin (+) without the chemical agent defined as 0%. It counts as cell-based. The method, then:
Stimulatory activity of triglyceride (TG) accumulation in 3T3-L1 cells (pre-adipocytes)
3T3-L1 cells just before a confluent state were prepared in an F75 flask. The medium was removed, and the residue was washed twice with 5 ml of PBS (−). The cells were detached using a solution of EDTA and trypsin. Ten milliliters of the medium were added thereto to form a suspension. This suspension was collected in a 50-milliliter centrifuge tube, and was subjected to centrifugation at 1,000 rpm for 5 minutes. Thus, the cells were precipitated, and the supernatant was removed. The cells were re-suspended in 20 ml of the medium, and the number of cells was counted. The suspension was adjusted such that the concentration of the cells reached 6×10^4 cells/ml, and was inoculated into a 24-well plate in an amount of 1 ml/well. In this state, the incubation was conducted in an incubator at 37° C. in 5% CO2 for 2 days.
A solution of 1-mM dexamethasone and 500-mM IBMX was prepared in DMSO. […]
Four to five days after the addition of the test chemical agent and the insulin solution, the 24-well plate was withdrawn from the incubator. […] Subsequently, the residue was extracted twice with isopropyl alcohol, and TG was measured at a wavelength of 410 nm using a TG-measuring kit (acetyl-acetone method). […]

In the case of `O=C(NS(=O)(=O)Cc1ccccc1)c1ccc2nc(C3CC3)n(Cc3ccccc3F)c2c1` [6-benzylsulfonylcarbamoyl-2-cyclopropyl-1-(2-fluorobenzyl)benzimidazole], the “Stimulatory activity of TG accumulation (%)” value is listed as 38.2%.

For the origin of these results see patent US6352985B1, “Benzimidazole compounds” (Fujisawa Pharmaceutical Co., Ltd., priority 1995, dated 2002).
